In patent US5849326A, “Method for treating neuronal diseases via administration of 2-acylaminopropanol derivatives” (Seikagaku Corporation, priority 1993, dated 1998):
Numbering of substitutions follows the chain as printed. Values belong to the molecule of their own block, whether it stands above or below them.

Tests used:
[1] = test system: ICR mice; test: General toxicity, continuous 10-day intraperitoneal administration; assay type: in vivo; conditions: 100 mg/kg/day intraperitoneally for 10 days
[2] = test system: explants; test: Neurite-extending activity in explants (Example 6); assay type: cell-based; conditions: 5 μM to 15 μM, cultured for 40 hours, FIG. 5
Description: 1.6×10^5 cells/well of explants were sowed in a plate with 24 wells containing a DMEM medium. […] After the mixture was cultured for 40 hours, the resulting culture was fixed and then dyed with Coomassie, and nervous fibers extended to have a length which was longer than a diameter of […] were counted.

[3] = target: T1, glucosylceramide biosynthesizing enzyme (Mus musculus, UniProt O88693); conditions: J. Lipid. Res., vol. 28, pp. 565-571, 1987; cited from earlier work
T1 sequence (O88693 1-394): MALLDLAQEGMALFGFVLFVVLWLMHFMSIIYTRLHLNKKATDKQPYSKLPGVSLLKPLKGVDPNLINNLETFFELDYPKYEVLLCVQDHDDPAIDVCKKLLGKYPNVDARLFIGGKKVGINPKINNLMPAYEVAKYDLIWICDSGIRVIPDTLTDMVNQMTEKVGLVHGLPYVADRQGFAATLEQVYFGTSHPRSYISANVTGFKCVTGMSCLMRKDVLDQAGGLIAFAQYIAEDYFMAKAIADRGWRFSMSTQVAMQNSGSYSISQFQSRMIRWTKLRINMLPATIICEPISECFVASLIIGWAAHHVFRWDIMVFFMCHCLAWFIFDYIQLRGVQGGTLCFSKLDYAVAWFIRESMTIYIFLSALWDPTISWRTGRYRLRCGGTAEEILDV

[4] = test system: neurites; conditions: J. Biochem., vol. 110, pp. 96-103, 1991; cited from earlier work
[5] = target: T2, GlcCer (glucosylceramide) synthase (Rattus norvegicus, UniProt Q9R0E0); test: Enzyme activity in treated cerebral cortex culture: GlcCer synthase; assay type: cell-based; conditions: culture treated with 15 μM for 40 hours
T2 construct: primary culture of cerebral cortex tissue specimens of Wister albino rats; endogenous in cells; host or cells: primary culture of rat (Wistar) cerebral cortex, sonicated after 40 h with compound
T2 sequence (Q9R0E0 1-394): T1 sequence (O88693 1-394) with D96E, K164R, R249K, T377A
Description: (§1) After the mixture was cultured for 40 hours, the resulting culture was harvested and pulverized in a homogenized buffer (50 mM Hepes, 0.32M sucrose) by using a chip type sonicator to prepare an enzyme source.
After ^3 H-GlcCer which was a reaction product was extracted with t-butyl methyl ether, the extract was concentrated and evaporated to dryness, and its radioactivity was measured.

[6] = test system: GM3 synthase; test: Enzyme activity in treated cerebral cortex culture: GM3 synthase; assay type: cell-based, rat; conditions: culture treated with 15 μM for 40 hours
Description: as §1
After the mixture containing a reaction product was developed by a reverse phase thin layer plate, a portion corresponding to the reaction product was scratched off, and its radioactivity was counted.

[7] = test system: acyl-CoA: sphingosine N-acyltransferase; test: Enzyme activity in treated cerebral cortex culture: acyl-CoA: sphingosine N-acyltransferase; assay type: cell-based, rat; conditions: culture treated with 15 μM for 40 hours
Description: as §1
0.25 mM sphingosine and 0.45 mM ^14 C palmitoyl CoA (8.3×10^5cpm) were reacted in the presence of ATP (adenosine 5'-triphosphate). After ceramide which was a reaction product was subjected to solvent extraction, the extract was concentrated and evaporated to dryness, and its radioactivity was counted.

[8] = test system: serine palmitoyltransferase; test: Enzyme activity in treated cerebral cortex culture: serine palmitoyltransferase; assay type: cell-based, rat; conditions: culture treated with 15 μM for 40 hours
Description: as §1
1.5 mM palmitoyl CoA (coenzyme A) and 0.1 mM ^14 C serine (8.3×10^5 cpm) were reacted in the presence of 0.5 mM pyridoxalphosphoric acid. After 3-keto-sphingosine which was a reaction product was extracted, the extract was concentrated and evaporated to dryness, and its radioactivity was counted.

[9] = test system: rat cerebral cortex neurocytes; test: Synapse formation measured as frequency of intracellular Ca2+ fluctuation; assay type: cell-based; conditions: FIG. 4
Text: Further, as a method of measuring synapse formation relatively simply and easily, there has been developed a multipoint observation system of Ca^2+ in neurocytes using Fura-2, and it has been confirmed that the number of synapse formation is in direct proportion to frequency of intracellular Ca^2+ fluctuation in synchronization therewith (Br. J. Pharmacol., 89, 191-198, 1986; Neurosci. Lett., 78, 69-74, 1987). We investigated influences of L-threo-FDMP and D-threo-PDMP exerted on synapse formation between rat cerebral cortex neurocytes by using this method, and the results are shown below.

[10] = test system: GD3 synthase; test: Enzyme activity in treated cerebral cortex culture: GD3 synthase; assay type: cell-based, rat; conditions: culture treated with 15 μM for 40 hours
Description: as §1
GM3 as an acceptor substrate was reacted with 30 mM CMP-^14 C sialic acid (2.88×10^6 cpm) as a donor substrate. After the mixture containing a reaction product was developed by a reverse phase thin layer plate, a portion corresponding to the reaction product was scratched off, and its radioactivity was counted.

[11] = test system: primary cultured rat cerebral neurocytes; test: Ganglioside content (ganglioside-binding sialic acid) of primary cultured neurocytes; assay type: cell-based
Description: Rat fetuses at the 18th day of pregnancy were taken out, and forebrain base portions of the fetuses were extracted aseptically and cut into small pieces by scissors. After the pieces were treated with papain (in a phosphate buffer containing 0.02% L-cysteine containing 180 U papain, 0.02% bovine serum albumin and 0.5% glucose, pH 7.4, at 37° C. for 30 minutes), they were washed with a mixed solution (DF medium) of 1:1 of a Dulbecco modified Eagle's medium and a Ham's F12 medium and suspended in a DF medium containing 5% bovine fetal serum and 5% equine serum. This neurocyte suspension was charged into a culture plate with 24 wells (Falcon, Primaria) in an amount of 1×10^6 cells/well. […] After completion of the culture, the cells in the respective wells were washed with a phosphate buffer and recovered by rubber policeman. Further, a ganglioside fraction was extracted by adding chloroform/methanol/water (1:2:0.8) and shaking the mixture for 5 minutes. […] The no addition group (control) which was defined as 100% was compared with the test groups, and the results are shown in Table 1.

[12] = test system: LacCer (lactosylceramide) synthase; test: Enzyme activity in treated cerebral cortex culture: LacCer synthase; assay type: cell-based, rat; conditions: culture treated with 15 μM for 40 hours
Description: as §1
GlcCer as an acceptor substrate was reacted with 0.315mM UDP (uridine diphosphate)-^3 H galactose (2.7×10^8 cpm) as a donor substrate. After the mixture containing ^3 H-LacCer which was a reaction product was developed by a silica gel thin layer plate, a portion corresponding to the reaction product was scratched off, and its radioactivity was counted.

[13] = test system: GSL; conditions: J. Lipid. Res., vol. 28, pp. 565-571, 1987; cited from earlier work
[14] = test system: rats with spacial recognition disorder caused by repeated cerebral ischemia; test: Maze radiated in 8 directions after repeated cerebral ischemia (Example 9); assay type: in vivo; conditions: 40 mg/kg i.p. twice a day for 6 days
Description: Wister albino male rats (weight: 250 to 280 g) were used, and training of a task of a maze which was radiated in 8 directions was conducted once a day to make the rats acquire spacial recognition. The rats which had acquired spacial recognition were subjected to cauterization of vertebral arteries and operation of peeling common carotid arteries according to the method of Pulsinelli, Brierly, et al. (Stroke, vol. 10, p. 267, 1979). […] The ischemia treatment was carried out by repeating ischemia twice, i.e., ligating common carotid arteries for 10 minutes by using clips without anesthesia and further ligating them for 10 minutes after 1 hour from restarting of blood flow. Retention trial was carried out one week after the ischemia treatment, and the results were represented by the number of correct choices among first 8 choices, whether all of 8 baits were taken or not, or the number of errors within an observation period a maximum of which was 10 minutes. Further, a pharmaceutical effect was evaluated by 3 ranks, i.e., remarkably effective (showing that the number of correct choices is 7 or more and the number of errors is 1 or less), effective (showing that the number of correct choices is 7 or more and the number of errors is 2 or 3) and ineffective (showing that the number of errors is 4 or more), and represented as an improvement rate thereof.
In the above experiment, examined was influence of continuous administration of 40 mg/kg of PDMP (i.p.) twice a day for 6 days started after 24 hours from the ischemia treatment, which was exerted on the spacial recognition disorder one week after the repeated cerebral ischemia, in the task of the maze which was radiated in 8 directions using the rats.

[15] = started 24 hours after ischemia, retention trial one week after ischemia, FIG. 7

SMILES: CCCCCCCCCC(=O)N[C@H](CN1CCOCC1)[C@H](O)c1ccccc1 (relative stereo) [DL-threo-PDMP, 1-phenyl-2-decanoylamino-3-morpholino-1-propanol]
decrease in weight / decrease in neutrophile, acidocyte due to suppression of bone marrow ([1]; in Myrj 52): neither decrease in weight nor decrease in neutrophile, acidocyte, etc. due to suppression of bone marrow was observed
abnormality on observation for 3 months ([1]; observation for 3 months): no abnormality was observed

Accelerating activity when enzyme activity of control is defined as 100%: GlcCer-synthase [5]: no change in the activities was observed
Accelerating activity when enzyme activity of control is defined as 100%: GM3 synthase [6]: no change in the activities was observed
Accelerating activity when enzyme activity of control is defined as 100%: Acyl-CoA: sphigosine N-acyltransferase [7]: no change in the activities was observed
Accelerating activity when enzyme activity of control is defined as 100%: Serine palmitoyltransferase [8]: no change in the activities was observed
Accelerating activity when enzyme activity of control is defined as 100%: GD3 synthase [10]: no change in the activities was observed
ganglioside level as compared with that of the control ([11]; 20 μM, 3 days): decrease in the ganglioside level
Accelerating activity when enzyme activity of control is defined as 100%: LacCer synthase [12]: no change in the activities was observed
SMILES: CCCCCCCCCC(=O)N[C@H](CN1CCOCC1)[C@H](O)c1ccccc1 [D-threo-PDMP, 1-phenyl-2-decanoylamino-3-morpholino-1-propanol]
effect on neurite extension [2]: moderate suppression of neurite extension
inhibition of glucosylceramide biosynthesizing enzyme [3]: specifically inhibits a glucosylceramide biosynthesizing enzyme
extension of neurites [4]: extension of neurites is suppressed
number of synapse formation (frequency of intracellular Ca2+ fluctuation) [9]: suppressedly acted on synapse formation
activity at 20 µM ([11]; Rattus norvegicus, 72 h, culture for 3 days, control defined as 100%): 63.4%
intracellular content of all GSL [13]: extremely decreases an intracellular content of all GSL

SMILES: CCCCCCCCCC(=O)NC(CN1CCOCC1)C(O)c1ccccc1 (stereo not drawn) [PDMP, 1-phenyl-2-decanoylamino-3-morpholino-1-propanol]
number of the correct choices versus vehicle group [14, 15]: increase of the number of the correct choices
number of the errors versus vehicle group [14, 15]: decrease of the number of the errors
improvement rate: rats in the remarkably effective rank ([14]; 4/8 rats, FIG. 8): 50%
